Test system: mpkCCDcl4 cells
Assay: Ussing-chamber short-circuit current (SCC) measurement of net transepithelial ion transport
Assay type: cell-based, mouse
Details: for effect of pretreatment on cyst fluid stimulated ion transport (SCC): inhibitor/effector added before 10% cyst fluid on serosal side; for ion transport (SCC) response to addition of the substance itself: added to the bathing media of monolayers, no prior stimulus
Procedure: mpkCCDcl4 cell culture. mpkCCDcl4 cells were developed as a line expressing the characteristics of the principal cell type of the distal nephron and cortical collecting duct. mpkCCDcl4 cells were grown in a humidified chamber at 37° C. and 5% CO2. The cell line was maintained in plastic culture flasks for propagation. For electrophysiological measurements, the cells were seeded onto Transwell filters at ¼ confluent density. The media was replaced thrice weekly and consisted of Dulbecco's modified Eagle's medium (DMEM): Ham's F12 basal media supplemented with 2% fetal bovine serum, 1 mM Glutamax, 25 U/mL penicillin, […] streptomycin, 12 mg/L ciprofloxacin, 5 mg/L transferrin, 20 μg/L sodium selenite, and 10^−7 M triiodothyronine.
Electrophysiology. Ussing-style electrophysiological measurements were used to measure net transepithelial transport as well as to monitor the transepithelial resistance as described previously. Briefly, transwell permeable membranes containing confluent (>10 days post seeding) monolayers of mpkCCDcl4 cells were excised from the plastic supports, mounted in modified Ussing chambers, and connected to a DVC-1000 Voltage/Current Clamp (World Precision Instruments) with voltage and current electrodes on either side of the membrane. The cells were bathed in serum-free medium maintained at 37° C. via water-jacketed buffer chambers on either side of the filter. Medium was circulated and kept at constant pH using a 5% CO2/95% O2 gas lift. The spontaneous transepithelial potential difference was measured and then clamped to zero. The resulting short-circuit current (SCC) is a measure of net transepithelial ion transport. During the entire experiment, non-zero voltage pulses are induced every 200 seconds and the current displacement during the pulse is used to calculate the transepithelial resistance via Ohm's law. Cultures with resistances lower than 1000 Ω·cm^2 measured within the first 10 minutes of placement in the chambers were discarded. The basal level of transport was monitored for 20-40 minutes before the start of an experiment. The time of addition of the stimulatory effector is defined as zero time.
Unless otherwise stated, each experiment was repeated 3-4 times. Because of variability in the magnitude of the stimulatory responses to cyst fluid from various patients, only one representative experiment is depicted.
The functional effects of cyst fluid were measured as changes in net transepithelial ion transport across high resistance epithelia formed by the mpkCCDcl4 cell line. […] For electrophysiological measurements, confluent cell monolayers grown on permeable supports are mounted in Ussing chambers with access to both the basolateral and apical surfaces. The spontaneous transepithelial potential difference is measured and clamped to zero. In high resistance epithelia, the resulting short-circuit current (SCC) is a measure of net transepithelial transport. By convention, a positive change is defined as anion moving in a secretory direction (serosal to luminal bathing media) or a cation moving in an absorptive direction (luminal to serosal bathing media). Likewise, a decrease in SCC can be defined as anions or cations moving in the opposite direction from that described above. The nature and direction of the ion flux is characterized by effectors and inhibitors.

Row | Molecule | effect of pretreatment on cyst fluid stimulated ion transport (SCC) | ion transport (SCC) response to addition of the substance itself | other results
1 | COc1ccc2c(c1)c(CC(=O)O)c(C)n2C(=O)c1ccc(Cl)cc1 [Indomethacin, indomethacin] | did not alter | – | –
2 | lysophosphatic acid [LPA] | – | identical to the response to renal cyst fluid | –
3 | O=C(OC[C@H]1O[C@@H](OC(=O)c2cc(O)c(O)c(OC(=O)c3cc(O)c(O)c(O)c3)c2)[C@H](OC(=O)c2cc(O)c(O)c(OC(=O)c3cc(O)c(O)c(O)c3)c2)[C@@H](OC(=O)c2cc(O)c(O)c(OC(=O)c3cc(O)c(O)c(O)c3)c2)[C@@H]1OC(=O)c1cc(O)c(O)c(OC(=O)c2cc(O)c(O)c(O)c2)c1)c1cc(O)c(O)c(OC(=O)c2cc(O)c(O)c(O)c2)c1 [tannic acid] | Neither inhibitor alone completely blocked the response | – | –
4 | CCCCCCCCCCCCOP(=O)(O)O [DDP, dodecylphosphate] | no effect | – | –
5 | N=C(N)NC(=O)c1nc(Cl)c(N)nc1N [amiloride] | – | immediate decrease in the basal current | effect of pre-treatment on subsequent response to forskolin (amiloride 10^-5 M apical, 10 minutes before forskolin): completely eliminated a subsequent response to forskolin; effect on forskolin-stimulated ion transport, added after forskolin (amiloride 10^-5 M apical, 30 minutes after forskolin): completed inhibited; effect on ion transport remaining 30 minutes after cyst fluid addition (amiloride added to apical bathing media): decreased the remaining ion transport to zero
6 | [Ba+2] [Ba^2+] | – | – | effect on stimulated Cl- secretion (pretreatment on the apical face): without effect; inhibition of stimulated Cl- secretion (pretreatment on the serosal side): about 50%
7 | CCCCCCCCCCCCC/C=C/[C@@H](O)[C@@H](N)COP(=O)(O)O [S-1-P, sphingosine-1-phosphate] | – | consistently minimal compared to those elicited by LPA | –
8 | O=C(CNc1ccc2ccccc2c1)N/N=C/c1cc(Br)c(O)c(Br)c1O [GlyH-101] | Neither inhibitor alone completely blocked the response | causes a stimulatory response when added | –
9 | N-palmitoyl-L-serine phosphoric acid [L-NASPA] | appears to inhibit a subsequent response to cyst fluid | immediate response that mimics the response to LPA or 10% cyst fluid | –
10 | CCCCCCCC(=O)OC[C@H](COP(=O)(O)OP(=O)(O)O)OC(=O)CCCCCCC [DGPP, diacylglycerol pyrophosphate] | substantially inhibited | – | concentrations with adverse effect on integrity of the cellular monolayer (decrease in transepithelial resistance): above 20 μM; average inhibition of the Cl- secretory peak stimulated in response to 10% cyst fluid (pretreatment with 20 μM DGPP, five experiments): 72.8+4.49%

Source: patent publication US9579335B2, “Treatment of cystic diseases” (Indiana University Research and Technology Corporation, priority 2010, dated 2017)
